{"source": "patent US20040014217A1", "about": "“Methods of transfection” (priority 2000, published 2004)", "key": {"[1]": {"test_system": "confluent 1HAEo-cells", "assay": "Immunofluorescence for tight junction protein occludin", "format": "cell-based, human", "conditions": "2 mM EGTA in Opti-MEM, 30 minutes", "procedure": "To observe the double fluorescence labelling, the β-galactosidase-transfected and BrdU-labelled (as detailed above in Assay of cell proliferation) cells were fixed with 70% ethanol in 50 mM glycine buffer, pH 2.0, for 30 minutes at −20° C. The cells were then incubated with a mixture of two primary antibodies, the rabbit anti-p-galactosidase at 1:200 (Chemicon International Inc, Harrow, UK). and the mouse anti-BrdU at 1:10 (BrdU Labelling and Detection Kit; Roche, Basel, Switzerland), followed by incubation with a mixture of FITC-conjugated goat anti-rabbit IgG and texas red labelled horse anti-mouse IgG (Vector Laboratories, Peterborough, UK). Transwell inserts were then excised from the plastic holder and mounted on glass slides with aqueous mountant Vectashield (Vector Laboratories, Peterborough, UK). To observe the effects of EGTA on tight junction, the EGTA-treated cells were immunostained with a rabbit polyclonal antibody against tight junction protein occludin (Zymed, San Francisco, USA) diluted 1:10 with PBS. […] Images were observed and captured with an inverted fluorescence microscope (Olympus IX70, Olympus Optical Company, London, UK) for transwell and a confocal microscope (Leica TCS SP, Exton, Pa., USA) for excised inserts."}, "[2]": {"test_system": "mouse lung", "assay": "Transfection of mouse lungs in vivo (luciferase), intra-tracheal instillation", "experimental": "Lipid (lipofectin) (1 mg/ml) and peptide 6 ([sequence]) (1 mg/ml) were mixed in one tube and pCILuc Plasmid DNA (1 mg/ml) and EGTA in phosphate buffer saline (PBS) were mixed together in another tube then the contents of the two tubes were mixed so that the final ratios were 0.75 μg lipid to 1 μg DNA and a final concentration of 100 mM EGTA (or no EGTA for the control). The protocol was repeated to give vector complexes having a final EGTA concentration of 400 mM.\nEach mouse received 8 μg of plasmid DNA in a volume of 50 μl.\nCell lysis buffer (Promega, Southampton, England) was added to each lung (4 μl/mg). The tissue was then homogenised two times, on ice, for 30 seconds each time (Polytron PT10-35, Philip Harris, Nottingham, England). Lung homogenates were is centrifuged at 10,000×g at 4 C for 10 minutes, then 20 μl of the supernatant were added to 100 μl of luciferase assay buffer (Promega) and luminescence measured in a luminometer (TD-20/20; Steptech Instruments, Stevenage, England). All results were repeated in triplicate and the mean calculated.\nThe total protein concentration in the lysate was measured using a protein assay kit (Bio-Rad, Hemel Hempstead, Herts, England) and using bovine serum albumin as a standard. Luciferase activity was expressed in relative light units (RLU) for each sample of lung lysate minus the background and normalised per mg of protein."}, "[3]": {"test_system": "1HAEo-cells", "assay": "BrdU incorporation by flow cytometry, 1HAEo- cells", "format": "cell-based, human", "conditions": "EGTA 2 mM, aphidicolin 10 μg/ml where present", "procedure": "A BrdU Labelling and Detection Kit (Roche, Basel, Switzerland) was used, which contains the BrdU labelling reagent and the monoclonal mouse anti-BrdU. […] Cells were washed with PBS and incubated with a second layer antibody, Texas Red labelled horse anti-mouse IgG (Vector Laboratories, Peterborough, UK), for 30 minutes at 37° C. and then analysed by flow cytometry at the wavelength of 575±20 nm as detailed above. In some experiments, aphidicolin, a cell-proliferation inhibitor blocking the cell cycle in S-phase, was added to the cells to observe the effects on transfection efficiency."}, "[4]": {"test_system": "1HAEo-cells", "assay": "Luminometric luciferase assay, EGTA effects, 1HAEo- cells", "format": "cell-based, human", "conditions": "2 mM EGTA prior to transfection, 2 washes", "procedure": "The confluent (A) and subconfluent (B) 1HAEo-cells were transfected with LID complexes after pre-treatment with EGTA (EGTA) or in the presence of EGTA (LID+EGTA).\nTo enhance the efficiency of transfection in confluent epithelial cells, several agents were tested including EGTA (Sigma, Poole, UK), trypsin/EDTA (Sigma, Poole, UK), water, and mouse anti human E-cadherin antibody (Serotec Ltd, Oxford, UK). It was carried out firstly by comparing the effects of pretreatment of the cells with EGTA, water and Trypsin/EDTA with EGTA formulated into LID vector without pretreatment. […]\nTwenty-four hours after transfection with pCI-luciferase, is cells were washed with PBS, lysed by adding 100 μl of Reporter Lysis Buffer (Promega, Southampton, UK) and detached from the plate by manual scraping using micropipette tips. […] The activity of luciferase was assayed with a luciferase assay kit (Promega, Southampton, UK) on a Lucy-1 plate-reading luminometer (Anthos, Salzburg, Austria). The protein concentration of each sample was determined with Protein Assay Reagent (BioRad Laboratories, Hertfordshire, UK) by measuring absorbance at 595 nm and the specific activity of luciferase was expressed as relative light unit per milligram protein (RLU/mg protein)."}}, "data": [{"smiles": "O=C(O)CN(CCOCCOCCN(CC(=O)O)CC(=O)O)CC(=O)O", "note": "[EGTA, ethylene glycol-bis(β-aminoethyl ether)-N,N,N′,N′-tetraacetic acid]", "values": [{"measurement": "effect on tight junctions (occludin immunofluorescence)", "setting": "[1]", "value": "disrupted the tight junctions"}, {"measurement": "enhancement of transfection of mouse lung (luciferase, RLU per mg lung protein)", "setting": "[2]; 100 mM EGTA, 8 μg plasmid DNA in 50 μl, intra-tracheal", "value": "about four-fold"}, {"measurement": "lethality", "setting": "[2]; 400 mM EGTA in vivo", "value": "lethal in many cases"}, {"measurement": "BrdU-positive cells, sub-confluent 1HAEo- cells", "setting": "[3]", "value": "about 24%"}, {"measurement": "enhancement of transfection, EGTA pre-treatment protocol, confluent cells", "setting": "[4]", "value": "no enhancement"}]}]}
